Assay results as given in patent US9023857B2, “Substituted 6-(2-aminobenzylamino)purine derivatives, their use as medicaments and preparations containing these compounds” (Univerzita Palackeho V Olomouci, priority 2009, dated 2015).
pIC50: −log10 of the molar value.

What was measured:
[1] = tested on: p53-responsive reporter pRGCΔfoslacZ in human melanoma cell line Arn8; test: p53-dependent transcriptional activity, β-galactosidase reporter in Arn8 cells; conditions: concentration inducing maximum of β-galactosidase activity (p53-responsive reporter)
[2] = tested on: promyelocytic leukemia HL 60; test: In vitro cytotoxic activity (Calcein AM, 72 hours), HL 60; conditions: Homo sapiens, HL-60, 72 h, read-out: Cytotoxicity IC50 HL60
[3] = tested on: human osteogenic sarcoma HOS; test: In vitro cytotoxic activity (Calcein AM, 72 hours), HOS; conditions: read-out: Cytotoxicity IC50 HOS
[4] = In vitro cytotoxic activity (Calcein AM, 72 hours), BJ; conditions: human, BJ normal fibroblasts
[5] = molecular target: CDK9/cyclin T (Homo sapiens, UniProt P50750); test: CDK inhibition assay, CDK9/cyclin T
[6] = molecular target: CDK1/cyclin B (Homo sapiens, UniProt P06493); test: CDK inhibition assay, CDK1/cyclin B
[7] = tested on: human erythroleukaemia K562; test: In vitro cytotoxic activity (Calcein AM, 72 hours), K562; conditions: K562, 72 h, read-out: Cytotoxicity IC50 K-562
[8] = tested on: human malignant melanoma G 361; test: In vitro cytotoxic activity (Calcein AM, 72 hours), G 361; conditions: G-361, 72 h, read-out: Cytotoxicity IC50 G361
[9] = tested on: cervical carcinoma cells HELA; test: In vitro cytotoxic activity (Calcein AM, 72 hours), HELA; conditions: Homo sapiens, read-out: Cytotoxicity IC50 HeLa
[10] = tested on: breast carcinoma MCF7; test: In vitro cytotoxic activity (Calcein AM, 72 hours), MCF7; conditions: Homo sapiens, MCF7, 72 h, read-out: Cytotoxicity IC50 MCF7
[11] = molecular target: CDK2/cyclin E (Homo sapiens, UniProt P24941); test: CDK inhibition assay, CDK2/cyclin E
[12] = tested on: human T-lymphoblastoid leukaemic cell line CEM; test: In vitro cytotoxic activity (Calcein AM, 72 hours), CEM; conditions: read-out: Cytotoxicity IC50 CEM

CDK1/cyclin B, sequence (P06493 whole entry, species assumed): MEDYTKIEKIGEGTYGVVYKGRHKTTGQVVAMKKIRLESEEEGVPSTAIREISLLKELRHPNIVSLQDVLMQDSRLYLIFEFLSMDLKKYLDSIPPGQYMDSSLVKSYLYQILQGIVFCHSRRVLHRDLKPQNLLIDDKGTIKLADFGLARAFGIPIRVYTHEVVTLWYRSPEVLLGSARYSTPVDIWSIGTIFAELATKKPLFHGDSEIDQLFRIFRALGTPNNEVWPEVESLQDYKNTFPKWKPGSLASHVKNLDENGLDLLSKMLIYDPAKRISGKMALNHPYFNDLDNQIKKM
CDK1/cyclin B, sequence (P14635 whole entry partner, species assumed): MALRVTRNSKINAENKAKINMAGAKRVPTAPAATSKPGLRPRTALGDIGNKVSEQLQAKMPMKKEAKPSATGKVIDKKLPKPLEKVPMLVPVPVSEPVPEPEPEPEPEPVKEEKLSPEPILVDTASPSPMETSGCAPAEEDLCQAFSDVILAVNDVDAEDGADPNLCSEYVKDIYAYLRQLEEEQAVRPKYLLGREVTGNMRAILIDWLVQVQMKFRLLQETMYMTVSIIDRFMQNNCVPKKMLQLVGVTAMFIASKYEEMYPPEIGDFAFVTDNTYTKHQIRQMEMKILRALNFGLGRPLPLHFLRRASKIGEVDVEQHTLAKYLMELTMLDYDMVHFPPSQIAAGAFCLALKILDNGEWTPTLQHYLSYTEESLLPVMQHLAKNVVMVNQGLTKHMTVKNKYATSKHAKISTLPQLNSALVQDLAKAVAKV
CDK9/cyclin T, sequence (P50750 whole entry, species assumed): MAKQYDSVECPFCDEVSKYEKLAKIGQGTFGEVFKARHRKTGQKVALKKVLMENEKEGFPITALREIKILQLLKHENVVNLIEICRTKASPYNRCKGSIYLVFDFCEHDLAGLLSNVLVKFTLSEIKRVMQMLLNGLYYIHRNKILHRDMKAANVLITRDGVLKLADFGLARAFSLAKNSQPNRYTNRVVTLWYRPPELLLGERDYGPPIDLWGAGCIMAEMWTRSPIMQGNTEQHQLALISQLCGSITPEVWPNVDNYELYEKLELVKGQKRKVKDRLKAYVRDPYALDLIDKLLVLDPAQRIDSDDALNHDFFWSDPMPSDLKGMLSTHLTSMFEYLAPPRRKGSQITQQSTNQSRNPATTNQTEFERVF
CDK9/cyclin T, sequence (O60563 whole entry partner, species assumed): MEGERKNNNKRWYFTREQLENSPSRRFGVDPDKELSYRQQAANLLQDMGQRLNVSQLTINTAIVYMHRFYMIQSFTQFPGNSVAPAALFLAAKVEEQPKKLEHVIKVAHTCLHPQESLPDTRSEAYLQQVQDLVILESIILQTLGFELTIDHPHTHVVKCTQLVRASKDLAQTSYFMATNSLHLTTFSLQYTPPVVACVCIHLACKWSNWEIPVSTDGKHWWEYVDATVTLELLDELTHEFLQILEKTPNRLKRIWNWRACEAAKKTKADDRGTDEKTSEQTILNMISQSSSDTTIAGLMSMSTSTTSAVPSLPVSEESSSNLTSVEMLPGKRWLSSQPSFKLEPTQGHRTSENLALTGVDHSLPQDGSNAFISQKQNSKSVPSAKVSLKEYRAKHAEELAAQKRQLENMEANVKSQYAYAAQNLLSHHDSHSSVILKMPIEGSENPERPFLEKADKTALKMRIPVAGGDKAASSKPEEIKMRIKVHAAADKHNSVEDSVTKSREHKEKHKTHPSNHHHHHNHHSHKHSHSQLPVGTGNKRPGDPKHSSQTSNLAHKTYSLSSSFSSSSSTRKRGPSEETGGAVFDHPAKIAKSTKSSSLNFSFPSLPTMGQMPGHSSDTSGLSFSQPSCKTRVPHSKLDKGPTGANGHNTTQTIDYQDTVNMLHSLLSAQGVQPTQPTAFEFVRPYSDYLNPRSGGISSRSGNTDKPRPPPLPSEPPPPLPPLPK

Row | pIC50 [5] | pIC50 [6] | pIC50 [11] | SMILES | Max. β-Gal. Activtity Conc. [1] [µM] | pIC50 [2] | pIC50 [3] | IC50 at 72 h [4] [µM] | pIC50 [7] | pIC50 [8] | pIC50 [9] | pIC50 [10] | pIC50 [12]
1 | 6.30 | 6.22 | 6.40 | CC(C)n1cnc2c(NCc3ccccc3)nc(NCC(C)(C)O)nc21 [Compound A2148] |  |  |  |  | 4.33 | 4.18 |  | 4.19 | 4.29
2 | 6.15 | 6.40 | 6.30 | CC(C)n1cnc2c(NCc3ccccc3)nc(NC3CCC(N)CC3)nc21 (stereo not drawn) [Compound A2141] |  | 4.33 | 4.55 | > 167 | 4.33 | 4.57 | 4.55 | 4.48 | 4.48
3 | 3.82 | 3.80 | 3.78 | CCCCCCCNc1nc(NCc2ccccc2)c2ncn(C(C)C)c2n1 [Compound A218] |  | 4.04 | 3.98 | > 167 | 4.52 | 4.08 | 4.19 | 4.37 | 4.43
4 | 5.60 | 5.64 | 5.57 | Cn1cnc2c(NCc3ccccc3)nc(NC3CCCCC3N)nc21 (stereo not drawn) [Compound A1140] |  | 4.16 | 4.01 | > 167 | 4.07 | 4.08 | 4.30 | 4.28 | 4.51

The next lines start with the molecule.

Row | SMILES | pIC50 [5] | pIC50 [6] | pIC50 [11] | Max. β-Gal. Activtity Conc. [1] [µM] | pIC50 [2] | pIC50 [3] | IC50 at 72 h [4] [µM] | pIC50 [7] | pIC50 [8] | pIC50 [9] | pIC50 [10] | pIC50 [12]
5 | CCC(Nc1nc(NCc2ccccc2N)c2ncn(C(C)C)c2n1)C(C)(C)O (stereo not drawn) [Compound 113] |  |  |  | 16 |  |  |  |  |  |  |  | 
6 | Cc1cccc(CNc2nc(NC3CCC(N)CC3)nc3c2ncn3C(C)C)c1N (stereo not drawn) [Compound 138] | 9.22 | 7.00 | 7.15 | 2 | 4.64 | 4.60 | > 167 | 5.02 | 4.89 | 5.04 | 5.42 | 5.06
7 | CCCn1cnc2c(NCc3ccccc3N)nc(NC3CCC(N)CC3)nc21 (stereo not drawn) [Compound 184] | 9.05 | 6.40 | 6.70 | 6 | 4.46 | 4.49 | > 167 | 4.62 | 4.72 | 4.77 | 5.10 | 4.96
8 | CCC(Nc1nc(NCc2ccccc2N)c2ncn(C)c2n1)C(C)(C)O (stereo not drawn) [Compound 13] |  |  |  | 36 |  |  |  |  |  |  |  | 
9 | CC(CC(C)(C)O)Nc1nc(NCc2ccccc2N)c2ncn(C(C)C)c2n1 (stereo not drawn) [Compound 111] |  |  |  | 32 |  |  |  |  |  |  |  | 
10 | CC(C)C(CO)Nc1nc(NCc2ccccc2N)c2ncn(C(C)C)c2n1 (stereo not drawn) [Compound 107] | 8.70 | 7.30 | 7.40 | 11 |  |  |  |  |  |  |  | 
11 | CC(Nc1nc(NCc2ccccc2N)c2ncn(C)c2n1)C(C)(C)O (stereo not drawn) [Compound 9] |  |  |  | 25 |  |  |  |  |  |  |  | 
12 | CC(C)n1cnc2c(NCc3ccccc3N)nc(NC(C)C(C)(C)O)nc21 (stereo not drawn) [Compound 109] |  |  |  | 6 |  |  |  |  |  |  |  | 
13 | CC(C)n1cnc2c(NCc3ccccc3N)nc(NCC(C)C(C)(C)O)nc21 (stereo not drawn) [Compound 112] |  |  |  | 35 |  |  |  |  |  |  |  | 
14 | CC(C)n1cnc2c(NCc3cc(F)ccc3N)nc(NC3CCCCC3N)nc21 (stereo not drawn) [Compound 125] | 8.10 | 6.40 | 7.00 |  |  |  |  | 5.00 |  |  | 5.22 | 5.30
15 | CC[C@H](CO)Nc1nc(NCc2ccccc2)c2ncn(C(C)C)c2n1 [RO] |  |  |  | 50 | 4.46 | 4.62 | > 167 | 4.28 | 4.66 | 4.66 | 4.85 | 4.85
16 | CCCCCCCNc1nc(NCc2ccccc2N)c2ncn(C(C)C)c2n1 [Compound 106, N-6-(2-aminobenzyl)-N-2-heptyl-9-isopropyl-9H-purin-2,6-diamine] |  |  |  | 41 |  |  |  |  |  |  |  | 
